Patent publication US20170326125A1, “MULTISUBSTITUTED AROMATIC COMPOUNDS AS INHIBITORS OF THROMBIN” (VERSEON CORPORATION, priority 2016, published 2017)

What follows are compounds tested against T1, Human thrombin (Homo sapiens, UniProt P00734) (assay: Inhibition of the protease activity of thrombin (chromogenic substrate S-2238)). Conditions: Table C; 3 nM thrombin, 125 μM S-2238, 10 min pre-incubation, RT.
T1 construct: purchased Haematologic Technologies Inc
Type: biochemical

IC50 | Structure (SMILES)
< 100 nM | CC(C)CC(=O)n1nc(-c2cccnc2)nc1NCc1cccs1 [Cmpd 375, 3-methyl-1-[3-(pyridin-3-yl)-5-[(thiophen-2-ylmethyl)amino]-1H-1,2,4-triazol-1-yl]butan-1-one]
> 1000 nM | CS(=O)(=O)n1nc(-c2cccnc2)nc1NCc1ccco1 [Cmpd 395, N-(furan-2-ylmethyl)-1-methanesulfonyl-3-(pyridin-3-yl)-1H-1,2,4-triazol-5-amine]
> 1000 nM | COC(=O)c1n[nH]c(NC(=O)CCc2ccc(C)cc2)n1 [Cmpd 388, methyl 5-[3-(4-methylphenyl)propanamido]-1H-1,2,4-triazole-3-carboxylate]
> 1000 nM | O=C(CCc1ccccc1)n1nc(-c2ccccc2)nc1NCc1ccccc1 [Cmpd 354, 1-[5-(benzylamino)-3-phenyl-1H-1,2,4-triazol-1-yl]-3-phenylpropan-1-one]
> 1000 nM | Nc1nc(-c2cccs2)n[nH]1 [Cmpd 373, 3-(thiophen-2-yl)-1H-1,2,4-triazol-5-amine]
> 1000 nM | COC(=O)c1n[nH]c(NC(=O)C(C)(C)C)n1 [Cmpd 378, methyl 5-(2,2-dimethylpropanamido)-1H-1,2,4-triazole-3-carboxylate]
> 1000 nM | COC(=O)c1n[nH]c(NC(=O)c2cccc(C)c2)n1 [Cmpd 382, methyl 5-[(3-methylbenzene)amido]-1H-1,2,4-triazole-3-carboxylate]
100 to 1000 nM | O=C(c1cccnc1)n1nc(-c2cccnc2)nc1NCc1cccs1 [Cmpd 372, 3-(pyridin-3-yl)-1-[(pyridin-3-yl)carbonyl]-N-(thiophen-2-ylmethyl)-1H-1,2,4-triazol-5-amine]
< 100 nM | O=C(c1ccc(Cl)cc1)n1nc(-c2cccnc2)nc1NCc1ccc(F)cc1 [Cmpd 338, 1-[(4-chlorophenyl)carbonyl]-N-[(4-fluorophenyl)methyl]-3-(pyridin-3-yl)-1H-1,2,4-triazol-5-amine]
> 1000 nM | O=C(c1cccnc1)n1nc(-c2cccnc2)nc1NCc1ccco1 [Cmpd 396, N-(furan-2-ylmethyl)-3-(pyridin-3-yl)-1-[(pyridin-3-yl)carbonyl]-1H-1,2,4-triazol-5-amine]
> 1000 nM | CC(=O)Nc1n[nH]c(NCc2ccccc2)n1 [Cmpd 406, N-[5-(benzylamino)-1H-1,2,4-triazol-3-yl]acetamide]

Same assay, conditions: inhibition of the protease activity of thrombin

IC50 | Structure (SMILES)
100 to 1000 nM | Cc1ccccc1C(=O)n1nc(-c2ccccc2)nc1NCc1ccc(F)cc1 [Cmpd 209, N-[(4-fluorophenyl)methyl]-1-[(2-methylphenyl)carbonyl]-3-phenyl-1H-1,2,4-triazol-5-amine]
100 to 1000 nM | COc1ccccc1C(=O)n1nc(-c2ccccn2)cc1NCc1ccccc1 [Cmpd 256, N-benzyl-1-[(2-methoxyphenyl)carbonyl]-3-(pyridin-2-yl)-1H-pyrazol-5-amine]
> 1000 nM | c1ccc(CNc2nc(-c3cccnc3)n[nH]2)cc1 [Cmpd 287, N-benzyl-3-(pyridin-3-yl)-1H-1,2,4-triazol-5-amine]
> 1000 nM | COc1ccc(CNc2nc(-c3ccncc3)nn2C(=O)c2cccs2)cc1 [Cmpd 229, N-[(4-methoxyphenyl)methyl]-3-(pyridin-4-yl)-1-[(thiophen-2-yl)carbonyl]-1H-1,2,4-triazol-5-amine]
> 1000 nM | Fc1ccc(CNc2nc(-c3ccccn3)nn2CCc2ccccc2)cc1 [Cmpd 203, N-[(4-fluorophenyl)methyl]-1-(2-phenylethyl)-3-(pyridin-2-yl)-1H-1,2,4-triazol-5-amine]
> 1000 nM | COc1ccccc1C(=O)N(Cc1ccccc1)c1cc(-c2ccccc2F)n[nH]1 [Cmpd 292, N-benzyl-N-[3-(2-fluorophenyl)-1H-pyrazol-5-yl]-2-methoxybenzamide]
> 1000 nM | COc1ccc(CNc2nc(-c3ccccn3)nn2C(=O)c2cccs2)cc1 [Cmpd 226, N-[(4-methoxyphenyl)methyl]-3-(pyridin-2-yl)-1-[(thiophen-2-yl)carbonyl]-1H-1,2,4-triazol-5-amine]
> 1000 nM | CC(C)OC(=O)n1nc(-c2cccnc2)nc1NCc1ccc(F)cc1 [Cmpd 299, propan-2-yl 5-[(4-fluorophenyl)methyl]amino-3-(pyridin-3-yl)-1H-1,2,4-triazole-1-carboxylate]
> 1000 nM | CCCn1nc(NCc2ccc(F)cc2)nc1-c1ccccn1 [Cmpd 217, N-[(4-fluorophenyl)methyl]-1-propyl-5-(pyridin-2-yl)-1H-1,2,4-triazol-3-amine]
> 1000 nM | CC(=O)c1cn(-c2ccccc2)nc1N(Cc1ccc(F)cc1)C(=O)OC(C)(C)C [Cmpd 302, tert-butyl N-(4-acetyl-1-phenyl-1H-pyrazol-3-yl)-N-[(4-fluorophenyl)methyl]carbamate]
> 1000 nM | CCCn1nc(-c2ccccn2)nc1NCc1ccc(F)cc1 [Cmpd 216, N-[(4-fluorophenyl)methyl]-1-propyl-3-(pyridin-2-yl)-1H-1,2,4-triazol-5-amine]
> 1000 nM | O=C(c1cccc2ccccc12)n1nc(-c2ccccn2)cc1NCc1ccccc1 [Cmpd 270, N-benzyl-1-[(naphthalen-1-yl)carbonyl]-3-(pyridin-2-yl)-1H-pyrazol-5-amine]
> 1000 nM | O=C(c1ccsc1)n1nc(-c2ccccc2F)cc1NCc1ccccc1 [Cmpd 279, N-benzyl-3-(2-fluorophenyl)-1-[(thiophen-3-yl)carbonyl]-1H-pyrazol-5-amine]
< 100 nM | O=C(c1ccoc1)n1nc(-c2ccccn2)nc1NCc1ccccc1 [Cmpd 267, N-benzyl-1-[(furan-3-yl)carbonyl]-3-(pyridin-2-yl)-1H-1,2,4-triazol-5-amine]
< 100 nM | O=C(c1ccsc1)n1nc(-c2ccccn2)cc1NCc1ccccc1 [Cmpd 284, N-benzyl-3-(pyridin-2-yl)-1-[(thiophen-3-yl)carbonyl]-1H-pyrazol-5-amine]

Same assay, conditions: inhibition of the protease activity of thrombin; class symbols a/b/c

IC50 | Structure (SMILES)
> 1000 nM | O=C(Nc1nc(C(=O)N2CCOCC2)n[nH]1)c1ccc(Cl)cc1 [Cmpd 184, 4-chloro-N-3-[(morpholin-4-yl)carbonyl]-1H-1,2,4-triazol-5-ylbenzamide]
> 1000 nM | COC(=O)c1n[nH]c(NC(=O)c2ccccc2OC)n1 [Cmpd 194, methyl 5-[(2-methoxybenzene)amido]-1H-1,2,4-triazole-3-carboxylate]

Further lines, the compound ahead of its results:

Structure (SMILES) | IC50
Fc1ccc(CN(Cc2ccc(F)cc2)c2cc(-c3ccccn3)nn2-c2ccccc2Cl)cc1 [Cmpd 44] | > 1000 nM
COc1ccc(CNc2nc(-c3ccccn3)nn2C(=O)CCc2ccccc2)cc1 [Cmpd 91, 1-(5-[(4-methoxyphenyl)methyl]amino-3-(pyridin-2-yl)-1H-1,2,4-triazol-1-yl)-3-phenylpropan-1-one] | 100 to 1000 nM
COc1ccccc1C(=O)n1nc(-c2ncccn2)nc1NCc1ccccc1 [Cmpd 35] | < 100 nM
O=C(Oc1ccccc1Cl)n1nc(-c2cccnc2)nc1NCc1ccc(F)cc1 [Cmpd 172, 2-chlorophenyl 5-[(4-fluorophenyl)methyl]amino-3-(pyridin-3-yl)-1H-1,2,4-triazole-1-carboxylate] | > 1000 nM
CC(C)(C)C(=O)n1nc(-c2ccncc2)nc1NCc1ccc(F)cc1 [Cmpd 75, 1-(5-[(4-fluorophenyl)methyl]amino-3-(pyridin-4-yl)-1H-1,2,4-triazol-1-yl)-2,2-dimethylpropan-1-one] | < 100 nM
CC(C)(C)C(=O)n1nc(-c2cccs2)nc1NCc1ccc(F)cc1 [Cmpd 82, 1-(5-[(4-fluorophenyl)methyl]amino-3-(thiophen-2-yl)-1H-1,2,4-triazol-1-yl)-2,2-dimethylpropan-1-one] | < 100 nM
O=C(O)c1cn(-c2ccccn2)nc1NCc1ccc(F)cc1 [Cmpd 47] | > 1000 nM
CC(C)C(=O)n1nc(-c2ccncc2)nc1NCc1ccc(F)cc1 [Cmpd 76, 1-(5-[(4-fluorophenyl)methyl]amino-3-(pyridin-4-yl)-1H-1,2,4-triazol-1-yl)-2-methylpropan-1-one] | < 100 nM
O=C(c1ccsc1)n1nc(-c2ccncc2)nc1NCc1ccc(F)cc1 [Cmpd 15] | < 100 nM
CNC(=O)c1n[nH]c(C(=O)Nc2ccccc2Cl)n1 [Cmpd 187, 5-C-(2-chlorobenzene)-3-N-methyl-1H-1,2,4-triazole-3,5-dicarboxamide] | > 1000 nM
COc1ccc(CNc2nc(-c3ccncc3)nn2C(=O)c2ccoc2)cc1 [Cmpd 127, 1-[(furan-3-yl)carbonyl]-N-[(4-methoxyphenyl)methyl]-3-(pyridin-4-yl)-1H-1,2,4-triazol-5-amine] | > 1000 nM
Fc1ccc(CNc2nc(-c3ccccn3)n(Cc3ccccc3)n2)cc1 [Cmpd 162, 1-benzyl-N-[(4-fluorophenyl)methyl]-5-(pyridin-2-yl)-1H-1,2,4-triazol-3-amine] | > 1000 nM
CN(C)C(=O)c1cn(-c2ccccn2)nc1NCc1ccc(F)cc1 [Cmpd 49] | > 1000 nM
CCC(=O)n1nc(-c2cccnc2)nc1NCc1ccccc1F [Cmpd 9] | 100 to 1000 nM
COc1ccccc1C(=O)n1nc(-c2ccccn2)nc1NCc1ccc2ccccc2c1 [Cmpd 120, 1-[(2-methoxyphenyl)carbonyl]-N-(naphthalen-2-ylmethyl)-3-(pyridin-2-yl)-1H-1,2,4-triazol-5-amine] | > 1000 nM
COc1ccc(CNc2nc(-c3ccccn3)nn2C(=O)C(C)C)cc1 [Cmpd 88, 1-(5-[(4-methoxyphenyl)methyl]amino-3-(pyridin-2-yl)-1H-1,2,4-triazol-1-yl)-2-methylpropan-1-one] | < 100 nM
COc1ccccc1C(=O)n1nc(-c2ccccn2)nc1NCc1cccc2ccccc12 [Cmpd 119, 1-[(2-methoxyphenyl)carbonyl]-N-(naphthalen-1-ylmethyl)-3-(pyridin-2-yl)-1H-1,2,4-triazol-5-amine] | > 1000 nM
CCC(=O)n1nc(-c2cccnc2)cc1NCc1ccc(F)cc1 [Cmpd 74, 1-(5-[(4-fluorophenyl)methyl]amino-3-(pyridin-3-yl)-1H-pyrazol-1-yl)propan-1-one] | > 1000 nM
CCC(=O)c1cn(-c2ccccn2)nc1NCc1ccc(F)cc1 [Cmpd 50] | > 1000 nM
O=C(Cc1ccccc1)n1nc(-c2ccncc2)nc1NCc1ccccc1 [Cmpd 147, 1-[5-(benzylamino)-3-(pyridin-4-yl)-1H-1,2,4-triazol-1-yl]-2-phenylethan-1-one] | < 100 nM
O=C(N1CCOCC1)n1nc(-c2cccnc2)nc1NCc1ccc(F)cc1 [Cmpd 17] | > 1000 nM
